How the values were obtained:
[1] = target: T1, nAChR(a4/b2) (Homo sapiens, UniProt P17787+P43681); experiment: Eurofins SAFETYscan 78-target panel, off-target effects, nAChR(a4/b2); assay type: biochemical; conditions: antagonist / blocker / inhibitor mode
T1 construct: Eurofins
Procedure: (§1) FIG. 9. Table summarizing the Eurofins analysis of potential off-target effects of M1i-124. […] values above 10 μM are generally considered to be acceptable. FIG. 10. Representative hematoxylin and eosin (H&E) staining of organ sections (lung, heart, kidney, liver and adrenal) from control and M1i-124 treated mice described in FIG. 6.
(§2) Studies were performed using the services of Touchstone Biosciences and Eurofins Pharma Discovery Services. […] All blood samples (30-50 ul per sample) were taken via tail vein at 5, 15, and 30 minutes, and 1, 2, 4, 6, 8, and 24 hours after dosing. Blood samples are collected in Greiner MiniCollect K2 EDTA tubes, placed on ice, and within 30 minutes, centrifuged at 15,000 g for 5 minutes to obtain plasma samples. All plasma samples are stored at −70° C. until analysis. Plasma samples were prepared for analysis by LC-MS/MS, and key PK parameters, including terminal half-life (t 112), initial plasma concentration (C0), area under the plasma concentration vs. time curve (AUC), volume of distribution at steady-state (Vss), total plasma clearance (CLp), and mean residence time (MRT), were measured.
(§3) Assay details are available through Eurofins.

[2] = target: T2, ADRB1 (Homo sapiens, UniProt P08588); experiment: Eurofins SAFETYscan 78-target panel, off-target effects, ADRB1; assay type: biochemical; conditions: antagonist / blocker / inhibitor mode
T2 construct: Eurofins
Procedure: as §1, §2, §3

[3] = target: T3, CNR2 (Homo sapiens, UniProt P34972); experiment: Eurofins SAFETYscan 78-target panel, off-target effects, CNR2; assay type: biochemical; conditions: antagonist / blocker / inhibitor mode
T3 construct: Eurofins
Procedure: as §1, §2, §3

[4] = target: T4, BCL10-MALT1 interaction (Homo sapiens, UniProt Q9UDY8); experiment: ELISA-based protein-protein interaction assay; assay type: binding; parameters: GST-tagged recombinant human full-length MALT1 protein (Novus Biologicals Cat #H00010892-P01); purchased Novus Biologicals H00010892-P01
T4 sequence (Q9UDY8 1-824): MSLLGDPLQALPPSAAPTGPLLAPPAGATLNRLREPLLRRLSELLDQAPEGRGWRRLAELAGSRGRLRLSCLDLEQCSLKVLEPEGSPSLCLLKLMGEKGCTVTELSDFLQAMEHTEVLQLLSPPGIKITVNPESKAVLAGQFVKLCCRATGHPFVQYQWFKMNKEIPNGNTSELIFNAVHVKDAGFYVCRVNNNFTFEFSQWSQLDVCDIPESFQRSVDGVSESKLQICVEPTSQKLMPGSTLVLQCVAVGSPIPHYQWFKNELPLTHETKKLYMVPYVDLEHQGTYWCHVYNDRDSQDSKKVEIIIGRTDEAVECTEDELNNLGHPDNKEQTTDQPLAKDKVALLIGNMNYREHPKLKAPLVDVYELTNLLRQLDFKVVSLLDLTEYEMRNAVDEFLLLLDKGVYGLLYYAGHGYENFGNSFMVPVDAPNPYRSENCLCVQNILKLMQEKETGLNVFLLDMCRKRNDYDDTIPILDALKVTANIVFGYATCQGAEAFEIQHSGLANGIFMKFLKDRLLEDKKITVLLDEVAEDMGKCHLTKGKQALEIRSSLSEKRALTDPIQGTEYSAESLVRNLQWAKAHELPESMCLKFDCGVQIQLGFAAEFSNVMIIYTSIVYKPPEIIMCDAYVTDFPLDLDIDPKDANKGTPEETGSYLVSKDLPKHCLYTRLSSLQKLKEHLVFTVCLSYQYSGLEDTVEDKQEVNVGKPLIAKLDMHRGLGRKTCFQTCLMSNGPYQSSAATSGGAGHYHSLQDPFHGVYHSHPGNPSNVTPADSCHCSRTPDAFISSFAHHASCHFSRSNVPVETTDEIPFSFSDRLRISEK
Procedure: On a high-binding 96-well ELISA microplate (Greiner Cat #655061), 100 ng of His-tagged recombinant human full-length Bcl10 protein (ProteinTech Cat #Ag12162) in 100 ul PBS was allowed to adhere overnight in 4° C. The plate was blocked with 5% BSA in PBS for 1 hour at room temperature. After washing twice with PBS-T, a mixture of 100 ng of GST-tagged recombinant human full-length MALT1 protein (Novus Biologicals Cat #H00010892-P01), +/−compound that was preincubated for 1 hour in 100 ul PBS, was added to the plate for 1 hour at room temperature. After washing three times with PBS-T, anti-MALT1 antibody in 5% BSA in PBS was added at 1:1000 dilution for 1 hour at room temperature. After washing three times with PBS-T, HRP-conjugated secondary antibody in 5% BSA in PBS was added at 1:5000 dilution for 1 hour at room temperature. After washing three times with PBS-T, 100 ul of TMB was added for 5 minutes, and 100 ul of 2 M sulfuric acid was added to stop the reaction. The plate was read at 450 nm using a spectrophotometer (Molecular Devices SpectraMax i3).

[5] = system: MALT1 proteolytic cleavage of RelB and N4BP1; experiment: RelB and N4BP1 cleavage assay in Jurkat T cells; assay type: cell-based; conditions: 20 hours pretreatment, MG132, PMA/iono stimulation
[6] = system: anti-CD3/CD28-induced phosphorylation of IKKα/β; experiment: Phosphorylation of IKKα/β in Jurkat T cells (Western blot); assay type: cell-based; conditions: 20 hours pretreatment, anti-CD3/CD28 for 0-20 minutes
Procedure: The DLBCL cell lines, OCI-Ly1, OCI-Ly3, and OCI-Ly7, were provided by Dr. Mark Minden (University Health Network, Toronto, Ontario, Canada). TMD8 cells were provided by Dr. Louis Staudt (NCI, NIH). OCI-Ly1 and OCI-Ly7 cells were cultured in Iscove's Modified Dulbecco's Medium (IMDM) supplemented with 10% FBS. OCI-Ly3 cells were cultured in IMDM supplemented with 20% FBS. TMD8 and Jurkat T cells were cultured in RPMI1640 medium with 10% FBS. HEK293T cells were cultured in DMEM medium with 10% FBS. All media were supplemented with 100 U/ml penicillin streptomycin. Stimulation of Jurkat cells was conducted by adding 5 ng/ml of phorbol 12-myristatel3 acetate (PMA)(Sigma-Aldrich) and 1μM ionomycin (Calbiochem), or by adding 5-10 μL/mL of ImmunoCult Human CD3/CD28 ([…] Technologies).

[7] = system: IL-2 secretion; experiment: IL-2 secretion (ELISA); assay type: cell-based, human; conditions: dose-response
Procedure: Expression of cytokines from cell culture supernatants was measured 24h after treatment with 0, 0.01, 0.03, 0.1, 0.3, 1, or 3 uM of compounds using the following ELISA kits according to the manufacturer's instructions: Human IL-2 ELISA (BioLegend Cat #431804), Human IL-6 ELISA (BioLegend Cat #430504), and Human IL-10 ELISA (BioLegend Cat #430604).

T2 sequence (P08588 whole entry): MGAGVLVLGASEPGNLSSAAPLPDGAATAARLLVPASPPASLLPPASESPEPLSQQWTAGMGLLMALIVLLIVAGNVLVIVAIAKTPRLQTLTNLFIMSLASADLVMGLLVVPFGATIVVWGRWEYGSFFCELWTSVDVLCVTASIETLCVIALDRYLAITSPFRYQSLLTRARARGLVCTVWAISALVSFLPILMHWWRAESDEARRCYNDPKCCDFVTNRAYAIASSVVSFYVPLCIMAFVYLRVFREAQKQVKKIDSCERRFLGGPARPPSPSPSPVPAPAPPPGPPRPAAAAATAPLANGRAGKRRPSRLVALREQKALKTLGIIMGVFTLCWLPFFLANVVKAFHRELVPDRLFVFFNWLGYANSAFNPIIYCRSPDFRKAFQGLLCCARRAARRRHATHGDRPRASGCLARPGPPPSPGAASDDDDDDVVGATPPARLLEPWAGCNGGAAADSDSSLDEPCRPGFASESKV
T1 sequence (P43681 29-627 limits assumed): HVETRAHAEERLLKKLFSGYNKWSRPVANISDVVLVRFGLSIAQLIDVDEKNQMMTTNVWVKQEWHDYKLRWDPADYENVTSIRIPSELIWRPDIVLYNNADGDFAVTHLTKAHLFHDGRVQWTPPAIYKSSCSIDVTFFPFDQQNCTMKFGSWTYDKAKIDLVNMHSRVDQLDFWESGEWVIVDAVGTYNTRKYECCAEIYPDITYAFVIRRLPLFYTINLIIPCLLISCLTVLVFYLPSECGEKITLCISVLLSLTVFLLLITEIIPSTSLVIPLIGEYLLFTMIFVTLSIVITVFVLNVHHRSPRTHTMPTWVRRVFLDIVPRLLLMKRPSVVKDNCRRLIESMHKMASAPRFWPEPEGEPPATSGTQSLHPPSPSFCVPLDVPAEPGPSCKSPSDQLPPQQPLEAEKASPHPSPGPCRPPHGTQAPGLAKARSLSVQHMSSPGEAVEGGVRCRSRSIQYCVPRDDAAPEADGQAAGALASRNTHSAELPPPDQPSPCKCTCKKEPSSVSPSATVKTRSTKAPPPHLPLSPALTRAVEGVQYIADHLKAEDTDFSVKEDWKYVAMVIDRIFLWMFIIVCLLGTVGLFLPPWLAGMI
T1 sequence (P17787 26-502): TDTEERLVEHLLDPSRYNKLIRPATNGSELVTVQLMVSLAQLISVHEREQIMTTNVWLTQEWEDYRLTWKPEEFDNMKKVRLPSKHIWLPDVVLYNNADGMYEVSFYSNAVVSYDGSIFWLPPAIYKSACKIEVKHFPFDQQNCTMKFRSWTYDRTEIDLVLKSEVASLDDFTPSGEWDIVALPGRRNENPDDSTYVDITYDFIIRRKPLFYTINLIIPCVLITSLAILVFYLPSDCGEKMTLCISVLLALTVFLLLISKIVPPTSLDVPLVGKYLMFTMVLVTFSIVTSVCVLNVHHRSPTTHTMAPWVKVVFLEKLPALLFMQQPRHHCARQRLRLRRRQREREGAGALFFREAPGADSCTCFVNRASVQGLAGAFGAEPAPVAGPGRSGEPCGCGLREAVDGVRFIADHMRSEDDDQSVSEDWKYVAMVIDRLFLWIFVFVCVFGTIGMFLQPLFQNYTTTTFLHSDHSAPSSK
T3 sequence (P34972 whole entry): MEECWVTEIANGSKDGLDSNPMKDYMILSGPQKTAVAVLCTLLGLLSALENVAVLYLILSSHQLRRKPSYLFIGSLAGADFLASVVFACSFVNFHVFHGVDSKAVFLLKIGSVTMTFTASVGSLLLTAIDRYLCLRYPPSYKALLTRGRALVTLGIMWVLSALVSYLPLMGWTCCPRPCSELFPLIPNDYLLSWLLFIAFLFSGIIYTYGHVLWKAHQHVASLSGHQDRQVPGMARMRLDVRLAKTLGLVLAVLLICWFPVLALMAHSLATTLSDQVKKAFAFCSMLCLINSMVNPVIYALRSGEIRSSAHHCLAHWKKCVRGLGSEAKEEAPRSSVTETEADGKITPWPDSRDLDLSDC

Row | Compound | IC50 [1] [µM] | IC50 [2] [nM] | IC50 [3] [µM] | ELISA IC50 compared with parent compound M1i-124 [4] | Disruption of the BCL10-MALT1 interaction by ELISA in the presence of tween ([4]; 0.005% tween) | MALT1 proteolytic cleavage of N4BP1 (ratio cleaved/full-length) [5] | MALT1 proteolytic cleavage of RelB (ratio cleaved/full-length) [5] | Phosphorylation of IKKα/β (phospho-IKK/total IKK) [6] | IL-2 secretion [7]
1 | O=S(=O)(NCc1ccc2c(c1)OCO2)c1ccc(Cc2ccc(S(=O)(=O)NCc3ccc4c(c3)OCO4)cc2)cc1 [M1i-124] | 4 | 800 | 9.9 | – | – | – | – | – | –
2 | COc1ccc(CNS(=O)(=O)c2ccc(Cc3ccc(S(=O)(=O)NCc4ccc(OC)cc4)cc3)cc2)cc1 [M1i-124d1] | – | – | – | lower IC50 as compared to parent compound | retain the ability to disrupt the BCL10-MALT1 interaction | inhibit | inhibit | leads to inhibition | dose-dependent inhibition

— US20240124410A1, “SMALL MOLECULES AND THEIR USE AS MALT1 INHIBITORS” (University of Pittsburgh - Of the Commonwealth System of …, priority 2021, published 2024)
